Measured values taken from patent US20250051338A1, “TYK2 DEGRADERS AND USES THEREOF” (Kymera Therapeutics, Inc., priority 2021, published 2025).

Tests used:
Assay type in all cases: cell-based
TYK2 [1] = molecular target: T1, TYK2 (Homo sapiens, UniProt P29597); assay: TYK2 degradation MSD assay in human PBMC cells; set-up: endogenous in cells; host or cells: human PBMC; conditions: 4 to 24 hours incubation, read-out: TYK2 MSD DC50 rating in human PBMC
Description: (§1) Example 3. TYK2 Degradation MSD Assay in EBV-B, OCI-LY10, and Human PBMC Cells
(§2) Degradation of TYK2 in cells was quantitatively measured using Meso Scale Discovery (MSD) technology. EBV-B, OCI-LY10 or human PBMC cells were seeded in 96-well plates with a density of 0.4 million cells per well in 100 μl fresh media. Compounds were then added to the assay plates with a final top concentration of 1 to 10 μM in a 1:3 dilution series with total of 9 doses. The assay plates were then incubated for 4 to 24 hours at 37° C. under 5% CO2. The assay plates were then centrifuged for 5 minutes, and the cell pellets were treated with 100 μl/well RIPA lysis buffer (Boston Bioproducts, BP-115D) with protease and phosphatase inhibitors (Roche, 05892791001 and 04906837001). To prepare MSD assay plates (MSD, L15XA), the plates were coated with the capture antibody (Santa Cruz Biotechnology, SC-5271) in PBS, at 40 μl/well. The plates were then incubated overnight at 4° C., washed 3 times with 150 μl/well TBST buffer (Cell Signaling Technology, 9997S) and blocked with 150 μl/well blocking buffer (MSD, R93BA-4). Cell lysates were then added to MSD assay plates and the plates were incubated at room temperature for 1 hour. The plates were then washed 3 times with 150 μl/well TBST buffer and 25 μl/well primary detection antibody (Cell Signaling Technology, #9312). The assay plates were then incubated at room temperature for 1 hour, washed 3 times with 150 μl/well TBST buffer, and 25 μl/well secondary detection antibody, SULFO-TAG anti-rabbit antibody (MSD, R32AB-1) were added. The assay plates were then incubated at room temperature for 1 hour, washed 3 times with 150 μl/well TBST buffer, and 150 μl/well MSD reading buffer (MSD, R92TC-2) were added. The plates were then analyzed by an MSD reader. The data was analyzed by GraphPad Prism and the dose dependent TYK2 degradation was fit using the four-parameter inhibitor vs. response nonlinear regression. The DC50 data were measured and categorized into different levels in Table H. The compound with DC50 less than or equal to 1 nM is marked as A, with DC50 more than 1 nM and less than or equal to 10 nM is marked as B, with DC50 more than 10 nM and less than or equal to 100 nM is marked as C, and with DC50 more than 100 nM or not available is marked as D.

TYK2 [2] = molecular target: T1, TYK2; assay: TYK2 degradation MSD assay in EBV-B cells; set-up: endogenous in cells; host or cells: EBV-B cells; conditions: 4 to 24 hours incubation, read-out: TYK2 MSD DC50 rating in EBV-B
Description: as §1, §2

TYK2 [3] = molecular target: T1, TYK2; assay: TYK2 degradation MSD assay in OCI-LY10 cells; set-up: endogenous in cells; host or cells: EBV-B cells; conditions: 4 to 24 hours incubation, read-out: TYK2 MSD DC50 rating in OCI-LY10
Description: as §1, §2

T1 sequence (P29597 whole entry): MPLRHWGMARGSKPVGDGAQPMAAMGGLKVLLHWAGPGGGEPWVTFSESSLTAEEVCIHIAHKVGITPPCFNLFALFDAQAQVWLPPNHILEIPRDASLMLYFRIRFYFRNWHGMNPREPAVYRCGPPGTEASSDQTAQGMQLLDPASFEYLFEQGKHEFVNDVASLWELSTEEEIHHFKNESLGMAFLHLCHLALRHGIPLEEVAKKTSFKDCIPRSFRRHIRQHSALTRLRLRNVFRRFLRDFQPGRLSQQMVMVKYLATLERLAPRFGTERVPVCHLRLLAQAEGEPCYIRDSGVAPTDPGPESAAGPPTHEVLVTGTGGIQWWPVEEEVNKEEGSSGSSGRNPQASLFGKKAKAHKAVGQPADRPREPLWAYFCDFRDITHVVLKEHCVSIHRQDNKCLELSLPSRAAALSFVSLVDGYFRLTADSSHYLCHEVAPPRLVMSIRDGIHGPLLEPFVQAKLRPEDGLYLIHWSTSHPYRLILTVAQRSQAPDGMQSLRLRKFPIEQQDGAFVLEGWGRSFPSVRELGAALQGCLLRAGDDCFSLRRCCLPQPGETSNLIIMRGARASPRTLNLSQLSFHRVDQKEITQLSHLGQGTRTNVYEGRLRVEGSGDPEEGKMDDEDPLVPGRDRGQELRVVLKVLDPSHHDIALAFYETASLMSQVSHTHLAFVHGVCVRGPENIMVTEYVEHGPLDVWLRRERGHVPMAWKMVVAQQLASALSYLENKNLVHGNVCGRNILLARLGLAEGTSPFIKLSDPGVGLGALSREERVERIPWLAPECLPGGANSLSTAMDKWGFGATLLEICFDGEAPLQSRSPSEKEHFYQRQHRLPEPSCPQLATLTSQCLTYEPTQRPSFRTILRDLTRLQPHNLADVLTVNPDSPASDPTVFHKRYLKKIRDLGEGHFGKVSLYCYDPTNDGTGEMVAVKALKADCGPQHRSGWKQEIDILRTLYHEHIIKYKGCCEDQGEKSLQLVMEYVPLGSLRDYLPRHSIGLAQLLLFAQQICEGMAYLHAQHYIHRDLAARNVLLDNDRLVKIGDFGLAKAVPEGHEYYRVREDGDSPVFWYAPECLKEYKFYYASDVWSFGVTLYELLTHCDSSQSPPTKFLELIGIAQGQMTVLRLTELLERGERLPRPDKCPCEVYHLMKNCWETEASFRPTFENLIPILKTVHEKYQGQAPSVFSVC

DC50 (TYK2 [1])	DC50 (TYK2 [2])	DC50 (TYK2 [3])	SMILES
< 1 nM	1 to 10 nM	< 1 nM	CNC(=O)c1cnc(Nc2ccc(C(=O)NCCCCc3cccc4c3n(C)c(=O)n4C3CCC(=O)NC3=O)cn2)cc1Nc1cccc(-c2ncc(F)cn2)c1OC (stereo not drawn) [Example K114]
< 1 nM	< 1 nM	> 100 nM	CNC(=O)c1cnc(Nc2ccc(C(=O)NCCCCCCc3cccc4c3n(C)c(=O)n4C3CCC(=O)NC3=O)cn2)cc1Nc1cccc(-c2ncc(F)cn2)c1OC (stereo not drawn) [Example K115]
1 to 10 nM	1 to 10 nM	> 100 nM	CNC(=O)c1cnc(Nc2ccc(C(=O)NCCCCCCCCc3cccc4c3n(C)c(=O)n4C3CCC(=O)NC3=O)cn2)cc1Nc1cccc(-c2ncc(F)cn2)c1OC (stereo not drawn) [Example K116]
< 1 nM	> 100 nM	> 100 nM	CNC(=O)c1cnc(Nc2cc(C(=O)NCCCCc3ccc4c(c3)n(C)c(=O)n4C3CCC(=O)NC3=O)ccn2)cc1Nc1cccc(-c2ncc(F)cn2)c1OC (stereo not drawn) [Example K126]
< 1 nM	> 100 nM	> 100 nM	CNC(=O)c1cnc(Nc2cc(C(=O)NCCCCCCc3ccc4c(c3)n(C)c(=O)n4C3CCC(=O)NC3=O)ccn2)cc1Nc1cccc(-c2ncc(F)cn2)c1OC (stereo not drawn) [Example K127]
1 to 10 nM	> 100 nM	> 100 nM	CNC(=O)c1cnc(Nc2cc(C(=O)NCCCCc3cccc4c3n(C)c(=O)n4C3CCC(=O)NC3=O)ccn2)cc1Nc1cccc(-c2ncc(F)cn2)c1OC (stereo not drawn) [Example K128]
< 1 nM	1 to 10 nM	> 100 nM	CNC(=O)c1cnc(Nc2cc(C(=O)NCCCCCCCCc3ccc4c(c3)n(C)c(=O)n4C3CCC(=O)NC3=O)ccn2)cc1Nc1cccc(-c2ncc(F)cn2)c1OC (stereo not drawn) [Example K129]
1 to 10 nM	1 to 10 nM	> 100 nM	CNC(=O)c1cnc(Nc2cc(C(=O)NCCCCCCCCc3cccc4c3n(C)c(=O)n4C3CCC(=O)NC3=O)ccn2)cc1Nc1cccc(-c2ncc(F)cn2)c1OC (stereo not drawn) [Example K130]
> 100 nM	1 to 10 nM	> 100 nM	CNC(=O)c1cnc(Nc2ccc(C(=O)N(C)C3CCN(c4ccc5c(c4)n(C)c(=O)n5C4CCC(=O)NC4=O)CC3)cn2)cc1Nc1ccccc1OC (stereo not drawn) [Example K133]
< 1 nM	< 1 nM	> 100 nM	CNC(=O)c1cnc(Nc2ccc(CN(C)CC3CCN(Cc4cccc5c4n(C)c(=O)n5C4CCC(=O)NC4=O)CC3)cn2)cc1Nc1cccc(-c2ncc(F)cn2)c1OC (stereo not drawn) [Example K134]
< 1 nM	< 1 nM	> 100 nM	CNC(=O)c1cnc(Nc2ccc(CN(C)CC3CCN(c4ccc5c(c4)n(C)c(=O)n5C4CCC(=O)NC4=O)CC3)cn2)cc1Nc1cccc(-c2ncc(F)cn2)c1OC (stereo not drawn) [Example K135]
1 to 10 nM	< 1 nM	> 100 nM	CNC(=O)c1cnc(Nc2ccc(CN3CCC(CC#Cc4cccc5c4n(C)c(=O)n5C4CCC(=O)NC4=O)CC3)cn2)cc1Nc1cccc(-c2ncc(F)cn2)c1OC (stereo not drawn) [Example K136]
< 1 nM	< 1 nM	> 100 nM	CNC(=O)c1cnc(Nc2ccc(CN(C)C3CCN(Cc4cccc5c4n(C)c(=O)n5C4CCC(=O)NC4=O)CC3)cn2)cc1Nc1cccc(-c2ncc(F)cn2)c1OC (stereo not drawn) [Example K137]
< 1 nM	< 1 nM	> 100 nM	CNC(=O)c1cnc(Nc2ccc(CN3CCN(CCc4ccc5c(c4)n(C)c(=O)n5C4CCC(=O)NC4=O)CC3)cn2)cc1Nc1cccc(-c2ncc(F)cn2)c1OC (stereo not drawn) [Example K138]
< 1 nM	< 1 nM	> 100 nM	CNC(=O)c1cnc(Nc2ccc(CN3CCN(CC4CCN(c5ccc(-c6ccc7c(c6)n(C)c(=O)n7C6CCC(=O)NC6=O)cc5)CC4)CC3)cn2)cc1Nc1cccc(-c2ncc(F)cn2)c1OC (stereo not drawn) [Example K139]
1 to 10 nM	< 1 nM	> 100 nM	CNC(=O)c1cnc(Nc2ccc(CN3CCC(N4CC(c5ccc6c(c5)n(C)c(=O)n6C5CCC(=O)NC5=O)C4)CC3)cn2)cc1Nc1cccc(-c2ncc(F)cn2)c1OC (stereo not drawn) [Example K140]
< 1 nM	> 100 nM	< 1 nM	CNC(=O)c1cnc(Nc2ccc(CN3CCC(OC4CC(c5cccc6c5n(C)c(=O)n6C5CCC(=O)NC5=O)C4)CC3)cn2)cc1Nc1cccc(-c2ncc(F)cn2)c1OC (stereo not drawn) [Example K141]
1 to 10 nM	< 1 nM	> 100 nM	CNC(=O)c1cnc(Nc2ccc(CN3CC(C)(Cc4ccc5c(c4)n(C)c(=O)n5C4CCC(=O)NC4=O)C3)cn2)cc1Nc1cccc(-c2ncc(F)cn2)c1OC (stereo not drawn) [Example K142]
< 1 nM	> 100 nM	> 100 nM	CNC(=O)c1cnc(Nc2ccc(CN3CCN(C(=O)CCc4ccc5c(c4)n(C)c(=O)n5C4CCC(=O)NC4=O)CC3)cn2)cc1Nc1cccc(-c2ncc(F)cn2)c1OC (stereo not drawn) [Example K143]
< 1 nM	< 1 nM	> 100 nM	CNC(=O)c1cnc(Nc2ccc(CN3CCC4(CC3)CC(Cc3ccc5c(c3)n(C)c(=O)n5C3CCC(=O)NC3=O)C4)cn2)cc1Nc1cccc(-c2ncc(F)cn2)c1OC (stereo not drawn) [Example K144]
1 to 10 nM	1 to 10 nM	> 100 nM	CNC(=O)c1cnc(Nc2ccc(CN3CCCC4(C3)CN(c3ncc(C#Cc5ccc6c(c5)n(C)c(=O)n6C5CCC(=O)NC5=O)cn3)C4)cn2)cc1Nc1cccc(-c2ncc(F)cn2)c1OC (stereo not drawn) [Example K145]
< 1 nM	< 1 nM	> 100 nM	CNC(=O)c1cnc(Nc2ccc(CN3CCC(CN4CCC(c5ccc6c(c5)n(C)c(=O)n6C5CCC(=O)NC5=O)CC4)CC3)cn2)cc1Nc1cccc(-c2ncc(F)cn2)c1OC (stereo not drawn) [Example K146]
1 to 10 nM	< 1 nM	> 100 nM	CNC(=O)c1cnc(Nc2ccc(CN3CCC(CN(C)c4ccc5c(c4)n(C)c(=O)n5C4CCC(=O)NC4=O)CC3)cn2)cc1Nc1cccc(-c2ncc(F)cn2)c1OC (stereo not drawn) [Example K147]
< 1 nM	< 1 nM	> 100 nM	CNC(=O)c1cnc(Nc2ccc(CN(C)CCCOC3CC(c4ccc5c(c4)n(C)c(=O)n5C4CCC(=O)NC4=O)C3)cn2)cc1Nc1cccc(-c2ncc(F)cn2)c1OC (stereo not drawn) [Example K148]
> 100 nM	< 1 nM	> 100 nM	CNC(=O)c1cnc(Nc2ccc(CN3CC4(CCN(c5ccc6c(c5)n(C)c(=O)n6C5CCC(=O)NC5=O)CC4)C3)cn2)cc1Nc1cccc(-c2ncc(F)cn2)c1OC (stereo not drawn) [Example K149]
< 1 nM	< 1 nM	> 100 nM	CNC(=O)c1cnc(Nc2ccc(CN3CC4(CCN(c5cccc6c5n(C)c(=O)n6C5CCC(=O)NC5=O)CC4)C3)cn2)cc1Nc1cccc(-c2ncc(F)cn2)c1OC (stereo not drawn) [Example K150]
> 100 nM	< 1 nM	> 100 nM	CNC(=O)c1cnc(Nc2ccc(CN3CCC(OCC#Cc4cccc5c4n(C)c(=O)n5C4CCC(=O)NC4=O)CC3)cn2)cc1Nc1cccc(-c2ncc(F)cn2)c1OC (stereo not drawn) [Example K151]
> 100 nM	1 to 10 nM	> 100 nM	CCNC(=O)c1cnc(Nc2ccc(C(=O)N(C)C3CCN(c4ccc5c(c4)n(C)c(=O)n5C4CCC(=O)NC4=O)CC3)cn2)cc1Nc1cccc(-c2ncc(F)cn2)c1OC (stereo not drawn) [Example K152]
< 1 nM	> 100 nM	< 1 nM	CNC(=O)c1cnc(Nc2ccc(CN(C)C3CN(c4ccc5c(c4)n(C)c(=O)n5C4CCC(=O)NC4=O)C3)cn2)cc1Nc1cccc(-c2ncc(F)cn2)c1OC (stereo not drawn) [Example K153]
